This passage reports EC50 results from ChEMBL document CHEMBL1124113, “Melanin concentrating hormone analogues: contraction of the cyclic structure. 1. Agonist activity” (J Med Chem, 1988).

Structures are written as SMILES. Bridge positions count the residues as written; N and C are the ends. Peptide text beside a SMILES is read from it.

Test [1] has as its system melanocortin receptor (frog). As to the kind of experiment: Melanosome dispersion (skin darkening) within melanocytes (Alpha-MSH-like activity), measured on tetrapod skin; Inactive at 10e-5.
Test [2] relates to Melanin-concentrating hormone receptor (Synbranchus marmoratus). As to the kind of experiment: Melanin concentrating hormone(MCH) activity, causes melanosome aggregation within integumental fish melanocytes and lightening of the skin; d = Inactive at 10e-6 M.
Test [3] relates to melanocortin receptor (frog). As to the kind of experiment: Melanosome dispersion (skin darkening) within melanocytes (Alpha-MSH-like activity), measured on tetrapod skin; e = Inactive at 10e-5.
The test system of test [4] is Melanin-concentrating hormone receptor (Synbranchus marmoratus). As to the kind of experiment: Melanin concentrating hormone(MCH) activity, causes melanosome aggregation within integumental fish melanocytes and lightening of the skin; d = Inactive at 10e-6 M. This is another data set of the same source.
Test [5] deals with melanocortin receptor (frog). As to the kind of experiment: Melanosome dispersion (skin darkening) within melanocytes (Alpha-MSH-like activity), measured on tetrapod skin; e =Inactive at 10e-5.

On to `CC(C)[C@H](NC(=O)[C@H](CCC(=O)O)NC(=O)[C@H](Cc1c[nH]c2ccccc12)NC(=O)[C@@H]1CSSC[C@H](N)C(=O)N[C@@H](Cc2ccc(O)cc2)C(=O)N[C@@H](CCCN=C(N)N)C(=O)N2CCC[C@H]2C(=O)N1)C(=O)O` (H-CYRPCWEV-OH; disulfide 1-5), for which, in test [1], the EC50 entry is recorded as “Not Active”. `CC(C)[C@H](NC(=O)[C@H](CCC(=O)O)NC(=O)[C@H](Cc1c[nH]c2ccccc12)NC(=O)[C@@H]1CSSC[C@H](N)C(=O)NCC(=O)N[C@@H](CCCN=C(N)N)C(=O)N[C@@H](C(C)C)C(=O)N[C@@H](Cc2ccc(O)cc2)C(=O)N[C@@H](CCCN=C(N)N)C(=O)N2CCC[C@H]2C(=O)N1)C(=O)O` (H-CGRVYRPCWEV-OH; disulfide 1-8): the EC50 entry in test [2] is recorded as “Not Active”. As for `CSCC[C@H](NC(=O)[C@H](C)N)C(=O)N[C@H](C(=O)NCC(=O)N[C@@H](CCCN=C(N)N)C(=O)N[C@H]1CSSC[C@@H](C(=O)N[C@@H](Cc2c[nH]c3ccccc23)C(=O)N[C@@H](CCC(=O)O)C(=O)N[C@H](C(=O)O)C(C)C)NC(=O)[C@@H]2CCCN2C(=O)[C@H](CCCN=C(N)N)NC(=O)[C@H](Cc2ccc(O)cc2)NC1=O)C(C)C` (H-AMVGRCYRPCWEV-OH; disulfide 6-10), the EC50 entry in test [2] is on record as “Not Active”.

As for `CSCC[C@H](NC(=O)[C@H](C)N)C(=O)N[C@H](C(=O)N[C@H]1CSSC[C@@H](C(=O)N[C@@H](Cc2c[nH]c3ccccc23)C(=O)N[C@@H](CCC(=O)O)C(=O)N[C@H](C(=O)O)C(C)C)NC(=O)[C@@H]2CCCN2C(=O)[C@H](CCCN=C(N)N)NC(=O)[C@H](Cc2ccc(O)cc2)NC(=O)[C@H](C(C)C)NC(=O)[C@H](CCCN=C(N)N)NC1=O)C(C)C` (H-AMVCRVYRPCWEV-OH; disulfide 4-10), the EC50 entry in test [3] was “Not Active”. As for `CSCC[C@H](NC(=O)[C@H](C)NC(=O)[C@H](CCCN=C(N)N)NC(=O)[C@H](CCSC)NC(=O)[C@@H](NC(=O)[C@@H](N)CC(=O)O)[C@@H](C)O)C(=O)N[C@H](C(=O)NCC(=O)N[C@@H](CCCN=C(N)N)C(=O)N[C@H]1CSSC[C@@H](C(=O)N[C@@H](Cc2c[nH]c3ccccc23)C(=O)N[C@@H](CCC(=O)O)C(=O)N[C@H](C(=O)O)C(C)C)NC(=O)[C@@H]2CCCN2C(=O)[C@H](CCCN=C(N)N)NC(=O)[C@H](Cc2ccc(O)cc2)NC1=O)C(C)C` (H-DTMRAMVGRCYRPCWEV-OH; disulfide 10-14), the EC50 result in test [4] is given as “Not Active”.

Turning to `CSCC[C@H](NC(=O)[C@H](C)NC(=O)[C@H](CCCN=C(N)N)NC(=O)[C@H](CCSC)NC(=O)[C@@H](NC(=O)[C@@H](N)CC(=O)O)[C@@H](C)O)C(=O)N[C@H](C(=O)N[C@H]1CSSC[C@@H](C(=O)N[C@@H](Cc2c[nH]c3ccccc23)C(=O)N[C@@H](CCC(=O)O)C(=O)N[C@H](C(=O)O)C(C)C)NC(=O)[C@@H]2CCCN2C(=O)[C@H](CCCN=C(N)N)NC(=O)[C@H](Cc2ccc(O)cc2)NC(=O)[C@H](C(C)C)NC(=O)[C@H](CCCN=C(N)N)NC1=O)C(C)C` (H-DTMRAMVCRVYRPCWEV-OH; disulfide 8-14), in test [2], the EC50 result is “Not Active”. Same read-out and setting: in the case of `CSCC[C@H](NC(=O)[C@H](C)NC(=O)[C@H](CCCN=C(N)N)NC(=O)[C@H](CCSC)NC(=O)[C@@H](NC(=O)[C@@H](N)CC(=O)O)[C@@H](C)O)C(=O)N[C@H]1CSSC[C@@H](C(=O)N[C@@H](Cc2c[nH]c3ccccc23)C(=O)N[C@@H](CCC(=O)O)C(=O)N[C@H](C(=O)O)C(C)C)NC(=O)[C@@H]2CCCN2C(=O)[C@H](CCCN=C(N)N)NC(=O)[C@H](Cc2ccc(O)cc2)NC(=O)[C@H](C(C)C)NC(=O)[C@H](CCCN=C(N)N)NC(=O)CNC1=O` (H-DTMRAMCGRVYRPCWEV-OH; disulfide 7-14) it was “Not Active”. On to `CC(C)[C@H](NC(=O)[C@H](CCC(=O)O)NC(=O)[C@H](Cc1c[nH]c2ccccc12)NC(=O)[C@@H]1CSSC[C@H](N)C(=O)N[C@@H](CCCN=C(N)N)C(=O)N[C@@H](C(C)C)C(=O)N[C@@H](Cc2ccc(O)cc2)C(=O)N[C@@H](CCCN=C(N)N)C(=O)N2CCC[C@H]2C(=O)N1)C(=O)O` (H-CRVYRPCWEV-OH; disulfide 1-7), for which, in test [1], the EC50 entry was “Not Active”. `CSCC[C@H](NC(=O)[C@H](C)N)C(=O)N[C@H]1CSSC[C@@H](C(=O)N[C@@H](Cc2c[nH]c3ccccc23)C(=O)N[C@@H](CCC(=O)O)C(=O)N[C@H](C(=O)O)C(C)C)NC(=O)[C@@H]2CCCN2C(=O)[C@H](CCCN=C(N)N)NC(=O)[C@H](Cc2ccc(O)cc2)NC(=O)[C@H](C(C)C)NC(=O)[C@H](CCCN=C(N)N)NC(=O)CNC1=O` (H-AMCGRVYRPCWEV-OH; disulfide 3-10): the EC50 entry in test [5] and in test [2] was “Not Active” in each case.
